Patent publication US20120283207A1, “ANTIBACTERIAL AMINOGLYCOSIDE ANALOGS” (Achaogen, Inc., priority 2009, published 2012)
In brackets after ≈: the same amount, converted by molar mass.

What was measured:
E. coli ATCC 25922 = test: MIC assay, CLSI broth microdilution, AECO001; assay type: cell-based; settings: Escherichia coli; AECO001 is ATCC25922; Mueller Hinton Broth, 35 C, 20 hours
Protocol: (§1) Minimum inhibitory concentrations (MIC) were determined by reference Clinical and Laboratory Standards Institute (CLSI) broth microdilution methods per M7-A7 [2006]. Quality control ranges utilizing E. coli ATCC 25922, P. aeruginosa ATCC 27853 and S. aureus ATCC 29213, and interpretive criteria for comparator agents were as published in CLSI M100-S17 [2007]. Briefly, serial two-fold dilutions of the test compounds were prepared at 2× concentration in Mueller Hinton Broth. The compound dilutions were mixed in 96-well assay plates in a 1:1 ratio with bacterial inoculum. The inoculum was prepared by suspension of a colony from an agar plate that was prepared the previous day. Bacteria were suspended in sterile saline and added to each assay plate to obtain a final concentration of 5×10^5 CFU/mL. The plates were incubated at 35 C for 20 hours in ambient air.

P. aeruginosa ATCC 27853 = test: MIC assay, CLSI broth microdilution, APAE001; assay type: cell-based; settings: Pseudomonas aeruginosa; APAE001 is ATCC27853; Mueller Hinton Broth, 35 C, 20 hours
Protocol: as §1

Row | MIC (E. coli ATCC 25922) [µg/mL] | MIC (P. aeruginosa ATCC 27853) [µg/mL] | Structure (SMILES)
1 | 1 to 16 (≈ 1.72 to 27.6 µM) | ≤ 1 | NCC1=CC[C@@H](N)[C@@H](O[C@H]2[C@H](O[C@@H]3O[C@H](CO)[C@@H](O[C@H]4OC(CN)[C@@H](O)[C@H](O)[C@H]4N)[C@H]3O)[C@@H](O)[C@H](N)C[C@@H]2N)O1 (stereo partly shown) [1/10, 4′,5′-dehydro-3′-deoxy-neomycin]
2 | > 16 | > 16 | NCC1O[C@H](O[C@H]2[C@@H](O)[C@H](O[C@@H]3[C@@H](O)[C@H](N)C[C@H](N)[C@H]3O[C@H]3OC(CO)=CC[C@H]3N)O[C@@H]2CO)[C@H](N)[C@@H](O)[C@@H]1O (stereo partly shown) [2/3, 4′,5′-dehydro-3′-deoxy-paromomycin]
3 | 1 to 16 (≈ 1.64 to 26.2 µM) | ≤ 1 | CNCC1=C[C@H](O)[C@@H](N)[C@@H](O[C@H]2[C@H](O[C@@H]3O[C@H](CO)[C@@H](O[C@H]4OC(CN)[C@@H](O)[C@H](O)[C@H]4N)[C@H]3O)[C@@H](O)[C@H](N)C[C@@H]2N)O1 (stereo partly shown) [3/3, 6′-N-methyl-4′,5′-dehydro-neomycin]
4 | 1 to 16 (≈ 1.68 to 26.9 µM) | 1 to 16 (≈ 1.68 to 26.9 µM) | CNCC1=CC[C@@H](N)[C@@H](O[C@H]2[C@H](O[C@@H]3O[C@H](CO)[C@@H](O[C@H]4OC(CN)[C@@H](O)[C@H](O)[C@H]4N)[C@H]3O)[C@@H](O)[C@H](N)C[C@@H]2N)O1 (stereo partly shown) [4/3, 6′-N-methyl-4′,5′-dehydro-3′-deoxy-neomycin]
5 | ≤ 1 | ≤ 1 | NCC[C@H](O)C(=O)N[C@@H]1C[C@H](N)[C@@H](O[C@H]2OC(CN)=CC[C@H]2N)[C@H](O[C@@H]2O[C@H](CO)[C@@H](O[C@H]3O[C@@H](CN)[C@@H](O)[C@H](O)[C@H]3N)[C@H]2O)[C@H]1O [5/6, 1-(2(S)-hydroxy-4-amino-butyryl)-4′,5′-dehydro-3′-deoxy-neomycin]
